# US9695155B2, “Herbicidal substituted pyrimidinyloxy benzene compounds” (E. I. DU PONT DE NEMOURS AND COMPANY, priority 2013, dated 2017)
# Experiments:
# barnyardgrass [1] = assay: Test A postemergence; assay type: in vivo, Echinochloa crus-galli
# How it was run: (§1)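 Scoring: eye-based comparison with untreated controls, 0 for no effect through 100 for complete control, at about day 10. Treatments: directed soil spray preemergence; foliar spray postemergence on 2–10 cm plants at the one- to two-leaf stage. Medium: loam soil with sand.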
# kochia = assay: Test A postemergence; assay type: in vivo, Kochia scoparia
# How it was run: as §1
# ragweed [2] = assay: Test A postemergence; assay type: in vivo, Ambrosia elatior
# How it was run: as §1
# Italian ryegrass [3] = assay: Test A postemergence; assay type: in vivo, Lolium multiflorum
# How it was run: as §1
# giant foxtail = assay: Test A postemergence; assay type: in vivo, Setaria faberii
# How it was run: as §1
# wheat = assay: Test A postemergence; assay type: in vivo, Triticum aestivum
# How it was run: as §1
# blackgrass [4] = assay: Test C preemergence; assay type: in vivo, Alopecurus myosuroides; conditions: for Blackgrass plant response rating: preemergence; for Plant response rating, Blackgrass: Preemergence, 62 g ai/ha, scale 0 to 100, 0 no effect, 100 complete control
# How it was run: (§2)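 Preemergence: seeds sown in a loam soil–sand blend and sprayed with test chemical in a non-phytotoxic solvent mixture containing surfactant. Postemergence: plants at 2 to 18 cm (1- to 4-leaf stage) in peat-based medium, treated with the same formulation. Greenhouse 13 to 15 days, then visual rating 0 (no effect) to 100 (complete control).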
# Italian ryegrass [5] = assay: Test C preemergence; assay type: in vivo, Lolium multiflorum; conditions: for Ryegrass, Italian plant response rating: preemergence; for Plant response rating, Ryegrass, Italian: Preemergence, 62 g ai/ha, scale 0 to 100, 0 no effect, 100 complete control
# How it was run: as §2
# johnsongrass = assay: Test C preemergence; assay type: in vivo, Sorghum halepense; conditions: for Johnsongrass plant response rating: preemergence; for Plant response rating, Johnsongrass: Preemergence, 62 g ai/ha, scale 0 to 100, 0 no effect, 100 complete control
# How it was run: as §2
# morningglory = assay: Test C preemergence; assay type: in vivo, Ipomoea coccinea; conditions: for Morningglory plant response rating: preemergence; for Plant response rating, Morningglory: Preemergence, 62 g ai/ha, scale 0 to 100, 0 no effect, 100 complete control
# How it was run: as §2
# yellow nutsedge = assay: Test C preemergence; assay type: in vivo, Cyperus esculentus; conditions: for Nutsedge, Yellow plant response rating: preemergence; for Plant response rating, Nutsedge, Yellow: Preemergence, 62 g ai/ha, scale 0 to 100, 0 no effect, 100 complete control
# How it was run: as §2
# ragweed [6] = assay: Test C preemergence; assay type: in vivo, Ambrosia elatior; conditions: for Ragweed plant response rating: preemergence; for Plant response rating, Ragweed: Preemergence, 62 g ai/ha, scale 0 to 100, 0 no effect, 100 complete control
# How it was run: as §2
# soybean = assay: Test C preemergence; assay type: in vivo, Glycine max; conditions: for Soybean plant response rating: preemergence; for Plant response rating, Soybean: Preemergence, 62 g ai/ha, scale 0 to 100, 0 no effect, 100 complete control
# How it was run: as §2
# barnyardgrass [7] = assay: Test C preemergence; assay type: in vivo, Echinochloa crus-galli; conditions: for Barnyardgrass plant response rating: preemergence; for Plant response rating, Barnyardgrass: Preemergence, 62 g ai/ha, scale 0 to 100, 0 no effect, 100 complete control
# How it was run: as §2
# oilseed rape [8] = assay: Test C preemergence; assay type: in vivo, Brassica napus; conditions: for Oilseed Rape plant response rating: preemergence; for Plant response rating, Oilseed Rape: Preemergence, 62 g ai/ha, scale 0 to 100, 0 no effect, 100 complete control
# How it was run: as §2
# blackgrass [9] = assay: Test C postemergence; assay type: in vivo, Alopecurus myosuroides; conditions: for Plant response rating (0 to 100), Blackgrass: 16 g ai/ha, 0 is no effect, 100 is complete control; for Blackgrass plant response rating: 31 g ai/ha; for Blackgrass plant response rating / Plant response rating, Blackgrass: scale 0 to 100 (0 no effect, 100 complete control)
# How it was run: as §2
# large (Lg) crabgrass = assay: Test C postemergence; assay type: in vivo, Digitaria sanguinalis; conditions: for Plant response rating (0 to 100), Crabgrass, Large: 16 g ai/ha, 0 is no effect, 100 is complete control; for Crabgrass, Large plant response rating: 31 g ai/ha; for Crabgrass, Large plant response rating / Plant response rating, Crabgrass, Large: scale 0 to 100 (0 no effect, 100 complete control)
# How it was run: as §2
# oilseed rape [10] = assay: Test C postemergence; assay type: in vivo, Brassica napus; conditions: for Plant response rating (0 to 100), Oilseed Rape: 16 g ai/ha, 0 is no effect, 100 is complete control; for Oilseed Rape plant response rating: 31 g ai/ha; for Oilseed Rape plant response rating / Plant response rating, Oilseed Rape: scale 0 to 100 (0 no effect, 100 complete control)
# How it was run: as §2
# [11] = 125 g ai/ha, 0 to 100 scale, 0 no effect, 100 complete control
# [12] = 500 g ai/ha, 0 to 100 scale where 0 is no effect and 100 is complete control
# [13] = 16 g ai/ha, scale 0 to 100 (0 no effect, 100 complete control)
# [14] = 125 g ai/ha, scale 0 (no effect) to 100 (complete control)
# [15] = postemergence, visual rating, 13 to 15 days
# [16] = 125 g ai/ha, postemergence, visual rating
# [17] = Postemergence, 62 g ai/ha, 13 to 15 days
# [18] = 31 g ai/ha, 0 to 100 scale, 0 no effect, 100 complete control
compound,measurement,setting,value
N#Cc1cn(-c2c(C#N)cccc2Oc2ncc(Cl)cn2)nn1 [Compound 273],"Plant response rating, Barnyardgrass",barnyardgrass [1]; [11],70
same,"Plant response rating, Barnyardgrass",barnyardgrass [1]; [12],90
same,"Plant response rating, Kochia",kochia; [11],70
same,"Plant response rating, Kochia",kochia; [12],100
same,"Plant response rating, Ragweed",ragweed [2]; [11],40
same,"Plant response rating, Ragweed",ragweed [2]; [12],90
same,"Plant response rating, Ryegrass, Italian",Italian ryegrass [3]; [11],50
same,"Plant response rating, Ryegrass, Italian",Italian ryegrass [3]; [12],80
same,"Plant response rating, Foxtail, Giant",giant foxtail; [11],70
same,"Plant response rating, Foxtail, Giant",giant foxtail; [12],90
same,"Plant response rating, Wheat",wheat; [11],10
same,"Plant response rating, Wheat",wheat; [12],50
same,Blackgrass plant response rating,blackgrass [4]; [13],0
same,Blackgrass plant response rating,blackgrass [4]; [14],70
same,"Plant response rating, Blackgrass",blackgrass [4],5
same,"Ryegrass, Italian plant response rating",Italian ryegrass [5]; [13],0
same,"Ryegrass, Italian plant response rating",Italian ryegrass [5]; [14],60
same,"Plant response rating, Ryegrass, Italian",Italian ryegrass [5],0
same,Johnsongrass plant response rating,johnsongrass; [13],0
same,Johnsongrass plant response rating,johnsongrass; [14],80
same,"Plant response rating, Johnsongrass",johnsongrass,55
same,Morningglory plant response rating,morningglory; [13],5
same,Morningglory plant response rating,morningglory; [14],85
same,"Plant response rating, Morningglory",morningglory,55
same,"Nutsedge, Yellow plant response rating",yellow nutsedge; [13],0
same,"Nutsedge, Yellow plant response rating",yellow nutsedge; [14],35
same,"Plant response rating, Nutsedge, Yellow",yellow nutsedge,5
same,Ragweed plant response rating,ragweed [6]; [13],10
same,Ragweed plant response rating,ragweed [6]; [14],85
same,"Plant response rating, Ragweed",ragweed [6],55
same,Soybean plant response rating,soybean; [13],5
same,Soybean plant response rating,soybean; [14],65
same,"Plant response rating, Soybean",soybean,40
same,Barnyardgrass plant response rating,barnyardgrass [7]; [13],0
same,Barnyardgrass plant response rating,barnyardgrass [7]; [14],85
same,"Plant response rating, Barnyardgrass",barnyardgrass [7],25
same,Oilseed Rape plant response rating,oilseed rape [8]; [13],0
same,Oilseed Rape plant response rating,oilseed rape [8]; [14],100
same,"Plant response rating, Oilseed Rape",oilseed rape [8],80
same,"Plant response rating (0 to 100), Blackgrass",blackgrass [9]; postemergence,5
same,Blackgrass plant response rating,blackgrass [9]; [15],5
same,"Plant response rating, Blackgrass",blackgrass [9]; [16],10
same,"Plant response rating, Blackgrass",blackgrass [9]; [17],10
same,"Plant response rating (0 to 100), Crabgrass, Large",large (Lg) crabgrass; postemergence,5
same,"Crabgrass, Large plant response rating",large (Lg) crabgrass; [15],5
same,"Plant response rating, Crabgrass, Large",large (Lg) crabgrass; [16],10
same,"Plant response rating, Crabgrass, Large",large (Lg) crabgrass; [17],10
same,"Plant response rating (0 to 100), Oilseed Rape",oilseed rape [10]; postemergence,0
same,Oilseed Rape plant response rating,oilseed rape [10]; [15],0
same,"Plant response rating, Oilseed Rape",oilseed rape [10]; [16],25
same,"Plant response rating, Oilseed Rape",oilseed rape [10]; [17],5
FC(F)Oc1cnn(-c2c(Cl)cccc2Oc2ncc(Cl)cn2)c1 [Compound 258],"Plant response rating, Barnyardgrass",barnyardgrass [1]; [18],10
same,"Plant response rating, Barnyardgrass",barnyardgrass [1]; [11],90
same,"Plant response rating, Kochia",kochia; [18],90
same,"Plant response rating, Kochia",kochia; [11],100
same,"Plant response rating, Ragweed",ragweed [2]; [18],10
same,"Plant response rating, Ragweed",ragweed [2]; [11],50
same,"Plant response rating, Ryegrass, Italian",Italian ryegrass [3]; [18],0
same,"Plant response rating, Ryegrass, Italian",Italian ryegrass [3]; [11],20
same,"Plant response rating, Foxtail, Giant",giant foxtail; [18],20
same,"Plant response rating, Foxtail, Giant",giant foxtail; [11],70
same,"Plant response rating, Wheat",wheat; [18],0
same,"Plant response rating, Wheat",wheat; [11],50
same,Blackgrass plant response rating,blackgrass [4]; [13],0
same,Blackgrass plant response rating,blackgrass [4]; [14],90
same,"Plant response rating, Blackgrass",blackgrass [4],90
same,"Ryegrass, Italian plant response rating",Italian ryegrass [5]; [13],0
same,"Ryegrass, Italian plant response rating",Italian ryegrass [5]; [14],70
same,"Plant response rating, Ryegrass, Italian",Italian ryegrass [5],25
same,Johnsongrass plant response rating,johnsongrass; [13],5
same,Johnsongrass plant response rating,johnsongrass; [14],90
same,"Plant response rating, Johnsongrass",johnsongrass,75
same,Morningglory plant response rating,morningglory; [13],10
same,Morningglory plant response rating,morningglory; [14],98
same,"Plant response rating, Morningglory",morningglory,45
same,"Nutsedge, Yellow plant response rating",yellow nutsedge; [13],5
same,"Nutsedge, Yellow plant response rating",yellow nutsedge; [14],100
same,"Plant response rating, Nutsedge, Yellow",yellow nutsedge,95
same,Ragweed plant response rating,ragweed [6]; [13],0
same,Ragweed plant response rating,ragweed [6]; [14],90
same,"Plant response rating, Ragweed",ragweed [6],80
same,Soybean plant response rating,soybean; [13],35
same,Soybean plant response rating,soybean; [14],95
same,"Plant response rating, Soybean",soybean,75
same,Barnyardgrass plant response rating,barnyardgrass [7]; [13],45
same,Barnyardgrass plant response rating,barnyardgrass [7]; [14],100
same,"Plant response rating, Barnyardgrass",barnyardgrass [7],90
same,Oilseed Rape plant response rating,oilseed rape [8]; [13],80
same,Oilseed Rape plant response rating,oilseed rape [8]; [14],100
same,"Plant response rating, Oilseed Rape",oilseed rape [8],100
same,"Plant response rating (0 to 100), Blackgrass",blackgrass [9]; postemergence,0
same,Blackgrass plant response rating,blackgrass [9]; [15],5
same,"Plant response rating, Blackgrass",blackgrass [9]; [16],10
same,"Plant response rating, Blackgrass",blackgrass [9]; [17],5
same,"Plant response rating (0 to 100), Crabgrass, Large",large (Lg) crabgrass; postemergence,5
same,"Crabgrass, Large plant response rating",large (Lg) crabgrass; [15],5
same,"Plant response rating, Crabgrass, Large",large (Lg) crabgrass; [16],15
same,"Plant response rating, Crabgrass, Large",large (Lg) crabgrass; [17],10
same,"Plant response rating (0 to 100), Oilseed Rape",oilseed rape [10]; postemergence,70
same,Oilseed Rape plant response rating,oilseed rape [10]; [15],85
same,"Plant response rating, Oilseed Rape",oilseed rape [10]; [16],98
same,"Plant response rating, Oilseed Rape",oilseed rape [10]; [17],95
